Laboratory results from US20260132165A1, “MODIFIED NUCLEOSIDE ANALOGUE AND USE THEREOF, AND NUCLEOSIDE ANALOGUE-CONTAINING DOUBLE-STRANDED OLIGONUCLEOTIDE AND USE THEREOF” (RIGERNA THERAPEUTICS (BEIJING) CO., LTD., priority 2023, published 2026).

Tests used:
target gene SOD1 [1] = test: Test Example 10: inhibitory activity on SOD1 in mouse adipose and heart tissues by different routes of administration; format: in vivo, C57BL/6j mice; conditions: D14; for inhibitory activity by different routes of administration: subcutaneous vs tail vein injection, same dose 5 mg/kg; for Subcutaneous % Mean value of inhibition rate: subcutaneous administration 5 mg/kg; for Intravenous % Mean value of inhibition rate: tail vein injection 5 mg/kg
Method: (§1) RNA extraction: the above tissue samples were taken out from the RNAlater, and smashed for 60 s in Tissuelyser type II full-automatic tissue homogenizer, and total RNAs of various tissue samples were extracted using the full-automatic nucleic acid extraction instrument and the nucleic acid extraction kit from Zhejiang Hanwei Science and Technology Co. Ltd. according to methods described in instructions.
(§2) Reverse transcription reaction: 1 μg of the extracted total RNAs of the tissue samples were taken, and configured into 20 μL of reverse transcription system according to a method described in kit instructions by using a reverse transcription kit (Reverse Transcription System, A3500) from Promega Corporation and selecting Oligo (dT)15 reverse transcription primers, and the reverse transcription reaction was completed. After the reaction was ended, 80 μL of RNase-Free water was added into the reverse transcription system to provide cDNA solution for Real-time PCR detection.
(§3) Real-time PCR detection: 20 μL of Real-time PCR reaction system per PCR detection well was configured according to a method described in kit instructions using SYBR™ Select Master Mix (Catalog number: 4472908) reagent from ABI company. Each detection system contained 5 μL of cDNA template obtained from the above reverse transcription reaction, 10 μL of SYBR™ Select Master Mix, 0.5 μL of 10 μM upstream primers, 0.5 μL of 10 μM downstream primers, and 4 μL of RNase-Free H2O. The configured reaction system was subjected to Real-time PCR amplification on ABI StepOnePlus PCR instrument by a three-step method, wherein an amplification procedure was pre-denaturation at 95° C. for 10 min, then denaturation at 95° C. for 30 s, annealing at 60° C. for 30 s, and extension at 72° C. for 30 s; and processes of denaturation, annealing, and extension were repeated for 40 cycles. Gene expression differences were calculated by the ΔΔCt method after completion of the procedure.
(§4) In the real-time fluorescence quantitative PCR method, relative quantitative calculation of remaining expression level and inhibition rate of gene mRNA of interest in various test groups was performed by the ΔΔCt method, and the calculation method is as follows:
(§5) The present test example evaluated, by an evaluation method for inhibitory activity on a target gene in mice, the inhibitory activity of siRNA sequence RZ899090 with the sense strand with the NM073 conjugation at Position 4 on the target gene SOD1 of interest in mice.
6-8 Week-old C57BL/6j mice were randomly grouped by body weight, 5 per group, 4 groups in total. Mice in one of the groups were dosed with the above siRNA conjugate by tail vein injection, with an administration dose of 5 mg/kg, and an administration volume of 150 μL. One group was dosed with the above siRNA conjugate by subcutaneous administration, with an administration dose of 5 mg/kg, and an administration volume of 5 ml/kg. The other two groups were PBS control groups, and were respectively administered with the same volume of siRNA conjugate-free PBS solution by tail vein injection and subcutaneous administration. The day of administration was recorded as D0, and the mice were sacrificed on D14 after administration. Paragonadal fat and heart tissues were respectively taken and stored in the RNAlater. RNA extraction, reverse transcription, and real-time fluorescence quantitative detection were performed on various tissues according to the above method, and gene expression differences were calculated by the above ΔΔCt method.

target gene SOD1 [2] = test: Test Example 11: inhibitory activity at different administration doses on SOD1 in mouse adipose and heart tissues; format: in vivo, C57BL/6j mice; conditions: D14; for 0.5 mg/kg % Mean value of inhibition rate: tail vein injection 0.5 mg/kg; for 2 mg/kg % Mean value of inhibition rate: tail vein injection 2 mg/kg; for 5 mg/kg % Mean value of inhibition rate: tail vein injection 5 mg/kg; for dose dependency of inhibitory activity: 0.5, 2, 5 mg/kg tail vein
Method: as §1, §2, §3, §4
as §5, with “4 at different administration doses” for “4”
6-8 Week-old C57BL/6j mice were randomly grouped by body weight, 5 per group, 4 groups in total. Mice were administered with the above siRNA conjugate by tail vein injection, wherein mice in one group were administered with the above siRNA conjugate at an administration dose of 5 mg/kg, mice in one group were administered with the above siRNA conjugate at an administration dose of 2 mg/kg, and one group was administered with the above siRNA conjugate at an administration dose of 0.5 mg/kg, all administration volumes being 150 μL. The remaining group acted as PBS control group and was administered with the same volume of siRNA conjugate-free PBS solution. The day of administration was recorded as D0, and the mice were sacrificed on D14 after administration. Paragonadal fat and heart tissues were respectively taken and stored in the RNAlater. RNA extraction, reverse transcription, and real-time fluorescence quantitative detection were performed on various tissues according to the above method, and gene expression differences were calculated by the above ΔΔCt method.

target gene SOD1 [3] = test: Test Example 12: inhibitory activity of lipid conjugated siRNA sequence on SOD1 in mouse eyes (intravitreal administration); format: in vivo, C57BL/6J mice; conditions: D14
Method: as §1, §2, §3, §4
as §5, with “RZ899091” for “RZ899090”, “NM074” for “NM073”, “4 and siRNA reference sequence RX899121 without vector conjugation” for “4”
6-8 Week-old C57BL/6J mice were randomly grouped by body weight, 5 in each group and 3 groups in total. Mice in each group were administered with the above siRNA conjugate by intravitreal administration to right eyes of the mice, with an administration dose of 7.5 μg per mouse, and an administration volume of 2 μL. PBS control group was administered with the same volume of siRNA conjugate-free PBS solution. The day of administration was recorded as D0, and the mice were sacrificed at D14 after administration. Administration-side ocular retina, choroid, cornea, sclera and other tissues were respectively taken and stored in the RNAlater. RNA extraction, reverse transcription, and real-time fluorescence quantitative detection were performed on various tissues according to the above method, and gene expression differences were calculated by the above ΔΔCt method.

[4] = mouse adipose tissues (paragonadal fat)

Substance	inhibitory activity by different routes of administration (target gene SOD1 [1]; adipose tissues)	inhibitory activity by different routes of administration (target gene SOD1 [1]; heart)	Subcutaneous % Mean value of inhibition rate (target gene SOD1 [1]; [4])	Intravenous % Mean value of inhibition rate (target gene SOD1 [1]; [4])	Subcutaneous % Mean value of inhibition rate (target gene SOD1 [1]; mouse heart tissues)	Intravenous % Mean value of inhibition rate (target gene SOD1 [1]; mouse heart tissues)	0.5 mg/kg % Mean value of inhibition rate (target gene SOD1 [2]; [4])	2 mg/kg % Mean value of inhibition rate (target gene SOD1 [2]; [4])	5 mg/kg % Mean value of inhibition rate (target gene SOD1 [2]; [4])	dose dependency of inhibitory activity (target gene SOD1 [2]; mouse adipose tissues)	dose dependency of inhibitory activity (target gene SOD1 [2]; mouse heart tissues)	0.5 mg/kg % Mean value of inhibition rate (target gene SOD1 [2]; mouse heart tissues)	2 mg/kg % Mean value of inhibition rate (target gene SOD1 [2]; mouse heart tissues)	5 mg/kg % Mean value of inhibition rate (target gene SOD1 [2]; mouse heart tissues)	Choroid % Mean value of inhibition rate (target gene SOD1 [3]; choroid, intravitreal, right eye, 7.5 μg per mouse)	Cornea and sclera % Mean value of inhibition rate (target gene SOD1 [3]; cornea and sclera, intravitreal, right eye, 7.5 μg per mouse)	Kidney % Mean value of inhibition rate (target gene SOD1 [3]; kidney, intravitreal, right eye, 7.5 μg per mouse)	Liver % Mean value of inhibition rate (target gene SOD1 [3]; liver, intravitreal, right eye, 7.5 μg per mouse)	inhibitory activity compared with the reference sequence RX899121 without vector (target gene SOD1 [3]; mouse retina and choroid, intravitreal 7.5 μg per mouse)	Retina % Mean value of inhibition rate (target gene SOD1 [3]; retina, intravitreal, right eye, 7.5 μg per mouse)
RZ899090: siRNA sequence with the sense strand with the NM073 (C18) conjugation at Position 4; SEQ ID NO: 15 / 23 (sense UUUNAAUCCUCACUCUAAA; antisense UUUAGAGUGAGGAUUAAAAUG; NM073 (C18) conjugate at sense position 4; modified_base 1..2 OTHER; 2'-methoxy and 5'-thiophosphate modified nucleotides; modified_base 3 OTHER; 2'-methoxy modified nucleotide; modified_base 4 OTHER; n is the nucleotide analog NM073 as described in the disclosure.; modified_base 5..6 OTHER; 2'-methoxy modified nucleotides; modified_base 7..10 OTHER; 2'-fluoro modified nucleotides; modified_base 11..19 OTHER; modified_base 1 OTHER; 2'-methoxy and 5'-thiovinylphosphonate modified nucleotide; modified_base 2 OTHER; 2'-fluoro and 5'-thiophosphate modified nucleotide; modified_base 3..5 OTHER; …)	comparable inhibitory activity in the fat	comparable inhibitory activity in heart	77.05%	80.33%	73.71%	76.57%	45.65%	70.90%	83.09%	distinct dose dependency	distinct dose dependency	30.45%	62.38%	79.04%	–	–	–	–	–	–
RZ899091: siRNA sequence with the sense strand with the NM074 (C20) conjugation at Position 4; SEQ ID NO: 16 / 23 (sense UUUNAAUCCUCACUCUAAA; antisense UUUAGAGUGAGGAUUAAAAUG; NM074 (C20) conjugate at sense position 4; modified_base 1..2 OTHER; 2'-methoxy and 5'-thiophosphate modified nucleotides; modified_base 3 OTHER; 2'-methoxy modified nucleotide; modified_base 4 OTHER; n is the synthetic nucleotide analog NM074 as described in the disclosure.; modified_base 5..6 OTHER; 2'-methoxy modified nucleotides; modified_base 7..10 OTHER; 2'-fluoro modified nucleotides; modified_base 11..19 OTHER; 2'-methoxy modified ; modified_base 1 OTHER; 2'-methoxy and 5'-thiovinylphosphonate modified nucleotide; modified_base 2 OTHER; 2'-fluoro and 5'-thiophosphate modified …)	–	–	–	–	–	–	–	–	–	–	–	–	–	–	33.54%	−2.05%	6.51%	−2.05%	superior inhibitory activity	54.98%
